Where two headings read alike, the source gives them in different places. Where a SMILES comes first, the peptide text is derived from it. Bridges are numbered along the chain shown (N, C = ends).
Experiments:
h[α6I56V/α3]β4 = target: T1, h[α6I56V/α3]β4 (Homo sapiens, UniProt P30926+P32297+Q15825, I89V); format: cell-based
T1 construct: formed by splicing the N-terminal extracellular domain of the α6 subunit with the α3 subunit; human nAChR α3 subunit (CHRNA3); expressed in transfected cells; host or cells: Xenopus laevis oocytes injected with cRNA (plasmids from the University of Utah)

hα6/α3β4K31R = target: T2, hα6/α3β4K31R (Homo sapiens, UniProt P30926+Q15825, K57R); format: cell-based
T2 construct: splicing the N-terminal extracellular domain of the α6 subunit with the α3 subunit; mutant made by PCR mutagenesis; host or cells: Xenopus laevis oocytes injected with cRNA

hα6/α3β4V53I = target: T3, hα6/α3β4V53I (Homo sapiens, UniProt P30926+Q15825, V79I); format: cell-based
T3 construct: splicing the N-terminal extracellular domain of the α6 subunit with the α3 subunit; mutant made by PCR mutagenesis; host or cells: Xenopus laevis oocytes injected with cRNA

hα6/α3β4A37S = target: T4, hα6/α3β4A37S (Homo sapiens, UniProt P30926+Q15825, A63S); format: cell-based
T4 construct: splicing the N-terminal extracellular domain of the α6 subunit with the α3 subunit; mutant made by PCR mutagenesis; host or cells: Xenopus laevis oocytes injected with cRNA

h[α6Q14R/α3]β4 [1] = format: cell-based, human
h[α6Q14R/α3]β4 [2] = target: T5, h[α6Q14R/α3]β4 (Homo sapiens, UniProt P30926+P32297+Q15825, Q47R); format: cell-based
T5 construct: formed by splicing the N-terminal extracellular domain of the α6 subunit with the α3 subunit; human nAChR α3 subunit (CHRNA3); expressed in transfected cells; host or cells: Xenopus laevis oocytes injected with cRNA (plasmids from the University of Utah)

hα6/α3β4L107V = target: T6, hα6/α3β4L107V (Homo sapiens, UniProt P30926+Q15825, L133V); experiment: cell-based
T6 construct: splicing the N-terminal extracellular domain of the α6 subunit with the α3 subunit; mutant made by PCR mutagenesis; host or cells: Xenopus laevis oocytes injected with cRNA

h[α6V32L/α3]β4 [3] = experiment: cell-based; set-up: species or system human
h[α6V32L/α3]β4 [4] = target: T7, h[α6V32L/α3]β4 (Homo sapiens, UniProt P30926+P32297+Q15825, V65L); experiment: cell-based
T7 construct: formed by splicing the N-terminal extracellular domain of the α6 subunit with the α3 subunit; human nAChR α3 subunit (CHRNA3); expressed in transfected cells; host or cells: Xenopus laevis oocytes injected with cRNA (plasmids from the University of Utah)

hα6/α3β4Y133H = target: T8, hα6/α3β4Y133H (Homo sapiens, UniProt P30926+Q15825, Y159H); format: cell-based
T8 construct: splicing the N-terminal extracellular domain of the α6 subunit with the α3 subunit; mutant made by PCR mutagenesis; host or cells: Xenopus laevis oocytes injected with cRNA

human α6/α3β2β3 nAChR = details: cited from earlier work
hα6/α3β4I84V = target: T9, hα6/α3β4I84V (Homo sapiens, UniProt P30926+Q15825, I110V); format: cell-based
T9 construct: splicing the N-terminal extracellular domain of the α6 subunit with the α3 subunit; mutant made by PCR mutagenesis; host or cells: Xenopus laevis oocytes injected with cRNA

h[α6M112V/α3]β4 = target: T10, h[α6M112V/α3]β4 (Homo sapiens, UniProt P30926+P32297+Q15825, M145V); format: cell-based
T10 construct: formed by splicing the N-terminal extracellular domain of the α6 subunit with the α3 subunit; fusion partner: remainder of the human α3 subunit (CHRNA3); expressed in transfected cells; host or cells: Xenopus laevis oocytes injected with cRNA

h[α6N110D/α3]β4 = target: T11, h[α6N110D/α3]β4 (Homo sapiens, UniProt P30926+P32297+Q15825, N143D); format: cell-based
T11 construct: formed by splicing the N-terminal extracellular domain of the α6 subunit with the α3 subunit; fusion partner: remainder of the human α3 subunit (CHRNA3); expressed in transfected cells; host or cells: Xenopus laevis oocytes injected with cRNA

hα6/α3β4M160K = target: T12, hα6/α3β4M160K (Homo sapiens, UniProt P30926+Q15825, M186K); format: cell-based
T12 construct: formed by splicing the N-terminal extracellular domain of the α6 subunit with the α3 subunit; human nAChR α3 subunit (CHRNA3); expressed in transfected cells; host or cells: Xenopus laevis oocytes injected with cRNA (plasmids from the University of Utah)

h[α6V32L, K61R/α3]β4 = format: cell-based, human
hα6/α3β4Q33E = target: T13, hα6/α3β4Q33E (Homo sapiens, UniProt P30926+Q15825, Q59E); format: cell-based
T13 construct: splicing the N-terminal extracellular domain of the α6 subunit with the α3 subunit; mutant made by PCR mutagenesis; host or cells: Xenopus laevis oocytes injected with cRNA

hα6/α3β4T65A = target: T14, hα6/α3β4T65A (Homo sapiens, UniProt P30926+Q15825, T91A); format: cell-based
T14 construct: splicing the N-terminal extracellular domain of the α6 subunit with the α3 subunit; mutant made by PCR mutagenesis; host or cells: Xenopus laevis oocytes injected with cRNA

hα6/α3β4L107V, V115I = target: T15, hα6/α3β4L107V, V115I (Homo sapiens, UniProt P30926+Q15825, L133V/V141I); experiment: cell-based; format: cell-based
T15 construct: formed by splicing the N-terminal extracellular domain of the α6 subunit with the α3 subunit; fusion partner: remainder of the human α3 subunit (CHRNA3); expressed in transfected cells; host or cells: Xenopus laevis oocytes injected with cRNA

[5] = read-out: inhibition of the current response to 100 μM ACh

T6 sequence (Q15825 26-239 limits assumed): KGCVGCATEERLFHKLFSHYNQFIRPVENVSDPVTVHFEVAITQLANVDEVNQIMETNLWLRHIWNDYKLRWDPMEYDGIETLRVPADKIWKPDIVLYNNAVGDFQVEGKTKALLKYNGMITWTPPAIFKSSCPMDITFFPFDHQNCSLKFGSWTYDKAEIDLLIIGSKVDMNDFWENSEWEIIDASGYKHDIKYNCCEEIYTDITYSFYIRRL
T6 sequence (P30926 22-498 L133V): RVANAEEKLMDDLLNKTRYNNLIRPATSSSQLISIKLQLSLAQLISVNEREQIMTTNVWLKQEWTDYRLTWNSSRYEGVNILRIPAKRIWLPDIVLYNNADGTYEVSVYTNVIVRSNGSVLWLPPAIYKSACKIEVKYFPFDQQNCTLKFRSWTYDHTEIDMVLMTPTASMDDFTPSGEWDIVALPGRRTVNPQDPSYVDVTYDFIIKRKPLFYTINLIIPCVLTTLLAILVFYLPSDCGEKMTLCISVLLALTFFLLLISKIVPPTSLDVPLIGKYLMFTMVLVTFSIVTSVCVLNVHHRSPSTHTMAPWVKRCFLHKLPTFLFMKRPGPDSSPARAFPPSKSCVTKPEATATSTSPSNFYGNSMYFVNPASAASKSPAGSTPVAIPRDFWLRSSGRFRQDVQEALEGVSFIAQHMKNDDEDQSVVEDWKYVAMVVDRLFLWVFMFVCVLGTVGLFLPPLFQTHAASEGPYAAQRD
T15 sequence (Q15825 26-239 limits assumed): as the sequence (Q15825 26-239 limits assumed) above
T15 sequence (P30926 22-498 L133V/V141I): as the sequence (P30926 22-498 L133V) above, with V120I counted along it
T11 sequence (Q15825+P32297 fused with the stated changes): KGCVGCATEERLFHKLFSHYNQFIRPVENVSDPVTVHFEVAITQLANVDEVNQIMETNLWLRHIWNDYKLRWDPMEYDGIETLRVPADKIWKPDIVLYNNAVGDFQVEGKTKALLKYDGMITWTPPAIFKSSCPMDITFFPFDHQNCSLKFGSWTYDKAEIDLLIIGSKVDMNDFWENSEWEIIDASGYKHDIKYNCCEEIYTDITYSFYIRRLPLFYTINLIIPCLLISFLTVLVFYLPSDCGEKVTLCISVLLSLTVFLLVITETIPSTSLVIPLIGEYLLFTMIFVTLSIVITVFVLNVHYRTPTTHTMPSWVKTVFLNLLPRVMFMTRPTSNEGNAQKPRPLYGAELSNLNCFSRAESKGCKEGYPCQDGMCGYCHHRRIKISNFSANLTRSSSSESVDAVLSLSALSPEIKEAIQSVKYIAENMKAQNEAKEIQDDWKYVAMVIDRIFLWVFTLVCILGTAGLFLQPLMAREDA
T11 sequence (P30926 22-498): as the sequence (P30926 22-498 L133V) above, with V112L counted along it
T7 sequence (Q15825+P32297 fused with the stated changes): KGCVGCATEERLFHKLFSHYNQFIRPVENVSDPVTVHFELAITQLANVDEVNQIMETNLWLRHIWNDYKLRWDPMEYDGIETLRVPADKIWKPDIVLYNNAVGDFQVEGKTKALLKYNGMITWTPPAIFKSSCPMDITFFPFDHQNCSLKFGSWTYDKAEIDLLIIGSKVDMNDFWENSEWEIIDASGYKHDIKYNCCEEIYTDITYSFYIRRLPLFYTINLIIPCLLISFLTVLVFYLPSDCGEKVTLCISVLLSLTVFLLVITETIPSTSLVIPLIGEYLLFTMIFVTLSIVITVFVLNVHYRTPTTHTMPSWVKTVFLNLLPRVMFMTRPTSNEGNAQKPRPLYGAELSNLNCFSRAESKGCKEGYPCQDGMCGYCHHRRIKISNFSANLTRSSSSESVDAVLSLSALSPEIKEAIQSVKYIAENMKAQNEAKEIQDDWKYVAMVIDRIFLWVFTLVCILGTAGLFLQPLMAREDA
T7 sequence (P30926 22-498): as the sequence (P30926 22-498 L133V) above, with V112L counted along it
T10 sequence (Q15825+P32297 fused with the stated changes): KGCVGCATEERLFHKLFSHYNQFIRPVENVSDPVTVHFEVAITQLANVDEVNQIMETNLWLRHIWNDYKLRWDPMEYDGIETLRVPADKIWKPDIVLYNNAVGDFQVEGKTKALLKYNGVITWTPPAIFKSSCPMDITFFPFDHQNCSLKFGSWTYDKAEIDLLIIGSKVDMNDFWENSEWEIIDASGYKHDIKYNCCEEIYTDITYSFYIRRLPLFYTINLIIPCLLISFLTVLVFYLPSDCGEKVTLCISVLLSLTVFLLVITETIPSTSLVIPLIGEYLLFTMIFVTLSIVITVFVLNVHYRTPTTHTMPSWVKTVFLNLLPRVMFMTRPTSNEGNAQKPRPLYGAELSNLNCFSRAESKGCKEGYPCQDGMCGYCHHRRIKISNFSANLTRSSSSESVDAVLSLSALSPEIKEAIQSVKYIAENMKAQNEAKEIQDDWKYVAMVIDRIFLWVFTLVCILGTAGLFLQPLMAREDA
T10 sequence (P30926 22-498): as the sequence (P30926 22-498 L133V) above, with V112L counted along it
T13 sequence (Q15825 26-239 limits assumed): as the sequence (Q15825 26-239 limits assumed) above
T13 sequence (P30926 22-498 Q59E): as the sequence (P30926 22-498 L133V) above, with Q38E, V112L counted along it

## CC(C)C[C@@H]1NC(=O)[C@H](CC(=O)O)NC(=O)[C@@H]2CCCN2C(=O)[C@H](Cc2c[nH]cn2)NC(=O)[C@H](CCCCN)NC(=O)[C@H](CC(N)=O)NC(=O)[C@H](CCCNC(=N)N)NC(=O)[C@@H]2CSSC[C@H](NC(=O)CN)C(=O)N[C@@H](CSSC[C@@H](C(N)=O)NC1=O)C(=O)N[C@@H](CO)C(=O)N[C@@H](CC(=O)O)C(=O)N1CCC[C@H]1C(=O)N1CCC[C@H]1C(=O)N2 [TxIB] (H-GCCSDPPCRNKHPDLC-NH2; disulfide 2-8, 3-16)
h[α6I56V/α3]β4
  Hill Slope: 1.0 (0.9–1.2)
  Ratio (change in TxIB IC50 relative to hα6/α3β4): 0.9
hα6/α3β4K31R
  Hill Slope: 0.8 (0.7–0.9)
  Ratio (change in TxIB IC50 relative to hα6/α3β4): 2.2
hα6/α3β4V53I
  Hill Slope: 0.8 (0.7–0.9)
  Ratio (change in TxIB IC50 relative to hα6/α3β4): 1.1
hα6/α3β4A37S
  Hill Slope: 0.9 (0.8–1.0)
  Ratio (change in TxIB IC50 relative to hα6/α3β4): 1.1
h[α6Q14R/α3]β4 [1]
  Ratio (change in TxIB IC50 relative to hα6/α3β4): 1
h[α6Q14R/α3]β4 [2]
  Hill Slope: 0.9 (0.7–1.2)
hα6/α3β4L107V
  Hill Slope: 0.8 (0.7–0.9)
  Ratio (change in TxIB IC50 relative to hα6/α3β4): 3.3
hα6/α3β4L107V; [5]
  activity at 10 µM: 21.7 ± 4.29%
h[α6V32L/α3]β4 [3]
  Ratio (change in TxIB IC50 relative to hα6/α3β4): 4.2
h[α6V32L/α3]β4 [4]
  Hill Slope: 0.7 (0.7–0.8)
h[α6V32L/α3]β4 [4]; [5]
  activity at 10 µM: 25.3 ± 5.23%
hα6/α3β4Y133H
  Hill Slope: 0.8 (0.7–1.0)
  Ratio (change in TxIB IC50 relative to hα6/α3β4): 1.3
Human α6/α3β2β3 nAChR
  blocking effect: significant blocking effect
hα6/α3β4I84V
  Hill Slope: 0.8 (0.8–0.9)
  Ratio (change in TxIB IC50 relative to hα6/α3β4): 1.4
h[α6M112V/α3]β4
  Hill Slope: 0.8 (0.7–0.9)
  Ratio (change in TxIB IC50 relative to hα6/α3β4): 0.6
h[α6N110D/α3]β4
  Hill Slope: 0.9 (0.8–1.0)
  Ratio (change in TxIB IC50 relative to hα6/α3β4): 1.6
hα6/α3β4M160K
  Hill Slope: 0.9 (0.7–1.1)
  Ratio (change in TxIB IC50 relative to hα6/α3β4): 1.5
h[α6V32L, K61R/α3]β4
  Ratio (change in TxIB IC50 relative to hα6/α3β4): 8.1
  time to full restoration of currents blocked by TxIB: ≤ 1 min
h[α6V32L, K61R/α3]β4; read-out: IC50
  IC50: 4.3 µM
h[α6V32L, K61R/α3]β4; read-out: IC50 (95% CI)
  IC50: 4.34 µM
h[α6V32L, K61R/α3]β4; [5]
  activity: 31.9 ± 8.05%
hα6/α3β4Q33E
  Hill Slope: 0.9 (0.7–1.0)
  Ratio (change in TxIB IC50 relative to hα6/α3β4): 0.8
hα6/α3β4T65A
  Hill Slope: 0.9 (0.8–1.0)
  Ratio (change in TxIB IC50 relative to hα6/α3β4): 1
hα6/α3β4L107V, V115I
  Hill Slope: 0.8 (0.8–0.9)
  Ratio (change in TxIB IC50 relative to hα6/α3β4): 4.9
  time to full restoration of currents blocked by TxIB: ≤ 1 min
hα6/α3β4L107V, V115I; [5]
  activity at 10 µM: 25.1 ± 11.2%
